#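 Assay format: 96-well plates, 48-hour exposure. TGI is the concentration that stops growth completely.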
# Legend:
# Assay in all cases: NCI-60 cell line screen, 48 h
# 786-0 renal = tested on: 786-0 renal
# A498 renal = tested on: A498 renal
# A549 NSCLC = tested on: A549 NSCLC
# ACHN renal = tested on: ACHN renal
# BT-549 breast = tested on: BT-549 breast
# CAKI-1 renal = tested on: CAKI-1 renal
# CCRF-CEM leukemia = tested on: CCRF-CEM leukemia
# COLO 205 colon = tested on: COLO 205 colon
# DU-145 prostate = tested on: DU-145 prostate
# EKVX NSCLC = tested on: EKVX NSCLC
# HCT-116 colon = tested on: HCT-116 colon
# HCT-15 colon = tested on: HCT-15 colon
# HOP-62 NSCLC = tested on: HOP-62 NSCLC
# HOP-92 NSCLC = tested on: HOP-92 NSCLC
# HS 578T breast = tested on: HS 578T breast
# HT29 colon = tested on: HT29 colon
# IGROV1 ovarian = tested on: IGROV1 ovarian
# K-562 leukemia = tested on: K-562 leukemia
# KM12 colon = tested on: KM12 colon
# LOX IMVI melanoma = tested on: LOX IMVI melanoma
# M14 melanoma = tested on: M14 melanoma
# MALME-3M melanoma = tested on: MALME-3M melanoma
# MCF7 breast = tested on: MCF7 breast
# MDA-MB-231 breast = tested on: MDA-MB-231 breast
# MDA-MB-435 = tested on: MDA-MB-435
# MOLT-4 leukemia = tested on: MOLT-4 leukemia
# NCI-H226 lung = tested on: NCI-H226 lung
# NCI-H23 lung = tested on: NCI-H23 lung
# NCI-H460 lung = tested on: NCI-H460 lung
# NCI-H522 lung = tested on: NCI-H522 lung
# NCI/ADR-RES ovarian = tested on: NCI/ADR-RES ovarian
# OVCAR-3 ovarian = tested on: OVCAR-3 ovarian
# OVCAR-4 ovarian = tested on: OVCAR-4 ovarian
# OVCAR-5 ovarian = tested on: OVCAR-5 ovarian
# OVCAR-8 ovarian = tested on: OVCAR-8 ovarian
# PC-3 prostate = tested on: PC-3 prostate
# RPMI-8226 leukemia = tested on: RPMI-8226 leukemia
# RXF 393 renal = tested on: RXF 393 renal
# SF-268 CNS = tested on: SF-268 CNS
# SF-295 CNS = tested on: SF-295 CNS
# SF-539 CNS = tested on: SF-539 CNS
# SK-MEL-2 melanoma = tested on: SK-MEL-2 melanoma
# SK-MEL-28 melanoma = tested on: SK-MEL-28 melanoma
# SK-MEL-5 melanoma = tested on: SK-MEL-5 melanoma
# SK-OV-3 ovarian = tested on: SK-OV-3 ovarian
# SN12C renal = tested on: SN12C renal
# SNB-19 CNS = tested on: SNB-19 CNS
# SNB-75 CNS = tested on: SNB-75 CNS
# SR leukemia = tested on: SR leukemia
# SW-620 colon = tested on: SW-620 colon
# T-47D breast = tested on: T-47D breast
# TK-10 renal = tested on: TK-10 renal
# U251 CNS = tested on: U251 CNS
# UACC-257 melanoma = tested on: UACC-257 melanoma
# UACC-62 melanoma = tested on: UACC-62 melanoma
# UO-31 renal = tested on: UO-31 renal
# HCC-2998 colon = tested on: HCC-2998 colon
# HL-60(TB) leukemia = tested on: HL-60(TB) leukemia
smiles,measurement,setting,value
Cc1cc(NN)nc2n[nH]c(N)c12,TGI,786-0 renal,> 100 µM
same,TGI,A498 renal,> 100 µM
same,TGI,A549 NSCLC,> 100 µM
same,TGI,ACHN renal,> 100 µM
same,TGI,BT-549 breast,> 100 µM
same,TGI,CAKI-1 renal,> 100 µM
same,TGI,CCRF-CEM leukemia,> 100 µM
same,TGI,COLO 205 colon,> 100 µM
same,TGI,DU-145 prostate,> 100 µM
same,TGI,EKVX NSCLC,> 100 µM
same,TGI,HCT-116 colon,> 100 µM
same,TGI,HCT-15 colon,> 100 µM
same,TGI,HOP-62 NSCLC,> 100 µM
same,TGI,HOP-92 NSCLC,> 100 µM
same,TGI,HS 578T breast,> 100 µM
same,TGI,HT29 colon,> 100 µM
same,TGI,IGROV1 ovarian,> 100 µM
same,TGI,K-562 leukemia,> 100 µM
same,TGI,KM12 colon,> 100 µM
same,TGI,LOX IMVI melanoma,> 100 µM
same,TGI,M14 melanoma,> 100 µM
same,TGI,MALME-3M melanoma,> 100 µM
same,TGI,MCF7 breast,> 100 µM
same,TGI,MDA-MB-231 breast,> 100 µM
same,TGI,MDA-MB-435,> 100 µM
same,TGI,MOLT-4 leukemia,> 100 µM
same,TGI,NCI-H226 lung,> 100 µM
same,TGI,NCI-H23 lung,> 100 µM
same,TGI,NCI-H460 lung,> 100 µM
same,TGI,NCI-H522 lung,> 100 µM
same,TGI,NCI/ADR-RES ovarian,> 100 µM
same,TGI,OVCAR-3 ovarian,> 100 µM
same,TGI,OVCAR-4 ovarian,> 100 µM
same,TGI,OVCAR-5 ovarian,> 100 µM
same,TGI,OVCAR-8 ovarian,> 100 µM
same,TGI,PC-3 prostate,> 100 µM
same,TGI,RPMI-8226 leukemia,> 100 µM
same,TGI,RXF 393 renal,> 100 µM
same,TGI,SF-268 CNS,> 100 µM
same,TGI,SF-295 CNS,> 100 µM
same,TGI,SF-539 CNS,> 100 µM
same,TGI,SK-MEL-2 melanoma,> 100 µM
same,TGI,SK-MEL-28 melanoma,> 100 µM
same,TGI,SK-MEL-5 melanoma,> 100 µM
same,TGI,SK-OV-3 ovarian,> 100 µM
same,TGI,SN12C renal,> 100 µM
same,TGI,SNB-19 CNS,> 100 µM
same,TGI,SNB-75 CNS,> 100 µM
same,TGI,SR leukemia,> 100 µM
same,TGI,SW-620 colon,> 100 µM
same,TGI,T-47D breast,> 100 µM
same,TGI,TK-10 renal,> 100 µM
same,TGI,U251 CNS,> 100 µM
same,TGI,UACC-257 melanoma,> 100 µM
same,TGI,UACC-62 melanoma,> 100 µM
same,TGI,UO-31 renal,> 100 µM
Cc1ccc(Nc2nc3nc[nH]c3c(=O)[nH]2)cc1CO,TGI,786-0 renal,29.1 µM
same,TGI,A549 NSCLC,10.2 µM
same,TGI,ACHN renal,29.4 µM
same,TGI,BT-549 breast,28.4 µM
same,TGI,CAKI-1 renal,29.3 µM
same,TGI,CCRF-CEM leukemia,36.2 µM
same,TGI,COLO 205 colon,27.8 µM
same,TGI,DU-145 prostate,33.6 µM
same,TGI,EKVX NSCLC,28 µM
same,TGI,HCC-2998 colon,28.9 µM
same,TGI,HCT-116 colon,25.4 µM
same,TGI,HCT-15 colon,29.9 µM
same,TGI,HL-60(TB) leukemia,21.6 µM
same,TGI,HOP-92 NSCLC,21 µM
same,TGI,HS 578T breast,43.9 µM
same,TGI,HT29 colon,22 µM
same,TGI,IGROV1 ovarian,28.3 µM
same,TGI,K-562 leukemia,40 µM
same,TGI,KM12 colon,22.7 µM
same,TGI,LOX IMVI melanoma,36.5 µM
same,TGI,M14 melanoma,25.5 µM
same,TGI,MALME-3M melanoma,30.4 µM
same,TGI,MCF7 breast,30.4 µM
same,TGI,MDA-MB-231 breast,24.7 µM
same,TGI,MDA-MB-435,29.6 µM
same,TGI,MOLT-4 leukemia,34.3 µM
same,TGI,NCI-H226 lung,31.8 µM
same,TGI,NCI-H23 lung,33.9 µM
same,TGI,NCI-H460 lung,30.7 µM
same,TGI,NCI-H522 lung,24.3 µM
same,TGI,NCI/ADR-RES ovarian,29.8 µM
same,TGI,OVCAR-3 ovarian,29.2 µM
same,TGI,OVCAR-4 ovarian,31.4 µM
same,TGI,OVCAR-5 ovarian,33.6 µM
same,TGI,OVCAR-8 ovarian,30.4 µM
same,TGI,PC-3 prostate,25.4 µM
same,TGI,RPMI-8226 leukemia,33.7 µM
same,TGI,RXF 393 renal,30 µM
same,TGI,SF-268 CNS,35.8 µM
same,TGI,SF-295 CNS,29.6 µM
same,TGI,SK-MEL-2 melanoma,31.2 µM
same,TGI,SK-MEL-28 melanoma,32.1 µM
same,TGI,SK-MEL-5 melanoma,31.2 µM
same,TGI,SK-OV-3 ovarian,27.7 µM
same,TGI,SNB-19 CNS,24.6 µM
same,TGI,SNB-75 CNS,29.2 µM
same,TGI,SR leukemia,37.7 µM
same,TGI,SW-620 colon,32 µM
same,TGI,T-47D breast,27.2 µM
same,TGI,TK-10 renal,31.9 µM
same,TGI,UACC-257 melanoma,31.2 µM
same,TGI,UACC-62 melanoma,25.9 µM
same,TGI,UO-31 renal,29.5 µM

# Source: PubChem BioAssay (NCI)
